In patent US12552757B2, “NRF2-activating compound” (SENJU PHARMACEUTICAL CO., LTD., priority 2019, dated 2026):

Assay: Measurement of metabolic stability in human liver microsomes
Assay type: in vitro ADME
Details: residual ratio of test compound after 30 minutes at 37° C. with human liver microsome, LC/MS/MS
Procedure: 1 mmol/L DMSO solutions of the compounds produced in the Examples were prepared. Each of the 1 mmol/L DMSO solutions was diluted with acetonitrile to 10 μmol/L, and then diluted with a 6.5 mmol/L Q-NADPH solution to 200 nmol/L. 50 μL of each solution was added to the reaction group and the non-reaction group. 50 μL of a 0.2 mg protein/mL human liver microsome (Mixed Gender, Pool of 50 livers; XenoTech, LLC) solution was added to the reaction group, followed by incubation at 37° C. for 30 minutes with shaking. After 400 μL of methanol was added to the non-reaction group, 50 μL of a 0.2 mg protein/mL human liver microsome solution was added to adjust the formulation. After incubation in the reaction group, 400 μL of methanol was added to stop the reaction. The samples of the reaction group and non-reaction group were allowed to stand at −20° C. for about 30 minutes, followed by centrifugation at 4° C. at 3000 rpm for about 10 minutes. The supernatant was analyzed using LC/MS/MS, and the residual ratio of the test compound was calculated from the peak area value of the test compound using the following formula. The measurement was carried out using the following devices: HPLC system: LC-20A-Series High Performance Liquid Chromatograph (Shimadzu Corporation) and mass spectrometer: API 4000 (AB Sciex Pte. Ltd.), or using equivalent devices. Residual ratio (%)=(peak area value of test compound in reaction group/peak area value of test compound in non-reaction group)×100 Results

Metabolic stability* | Structure (SMILES)
39% | CC[C@@H]1CN(Cc2cc(C(CC(=O)O)c3cc(C(C)=O)cs3)ccc2C)S(=O)(=O)c2ccccc2O1 (stereo partly drawn) [Compound 10, 3-(4-acetylthiophen-2-yl)-3-(3-{[(R)-4-ethyl-1,1-dioxide-3,4-dihydro-2H-benzo[b][1,4,5]oxathiazepin-2-yl]methyl}-4-methylphenyl)propanoic acid]
27% | CC[C@@H]1CN(Cc2cc(C(c3cc(F)c(C(C)=O)s3)C(C)(C)C(=O)O)ccc2C)S(=O)(=O)c2ccccc2O1 (stereo partly drawn) [Compound 11, 3-(5-acetyl-4-fluorothiophen-2-yl)-3-(3-{[(R)-4-ethyl-1,1-dioxide-3,4-dihydro-2H-benzo[b][1,4,5]oxathiazepin-2-yl]methyl}-4-methylphenyl)-2,2-dimethylpropanoic acid]
47% | CC[C@@H]1CN(Cc2cc(C(CC(=O)O)c3csc(C(C)=O)c3)ccc2C)S(=O)(=O)c2ccccc2O1 (stereo partly drawn) [Compound 15, 3-(5-acetylthiophen-3-yl)-3-(3-{[(R)-4-ethyl-1,1-dioxide-3,4-dihydro-2H-benzo[b][1,4,5]oxathiazepin-2-yl]methyl}-4-methylphenyl)propanoic acid]
56% | CC(=O)c1ccc(C(c2ccc(C)c(CN3C[C@@H](C)Oc4ccccc4S3(=O)=O)c2)C(C)(C)C(=O)O)s1 (stereo partly drawn) [Compound 12, 3-(5-acetylthiophen-2-yl)-2,2-dimethyl-3-(4-methyl-3-{[(R)-4-methyl-1,1-dioxide-3,4-dihydro-2H-benzo[b][1,4,5]oxathiazepin-2-yl]methyl}phenyl)propanoic acid]
74% | CC[C@@H]1CN(Cc2cc(C(CC(=O)O)c3ccc(C(=O)NC)s3)ccc2C)S(=O)(=O)c2ccccc2O1 (stereo partly drawn) [Compound 21, 3-(3-{[(R)-4-ethyl-1,1-dioxide-3,4-dihydro-2H-benzo[b][1,4,5]oxathiazepin-2-yl]methyl}-4-methylphenyl)-3-[5-(methylcarbamoyl)thiophen-2-yl]propanoic acid]
77% | CC[C@@H]1CN(Cc2cc(C(CC(=O)O)c3csc(C(=O)NC)c3)ccc2C)S(=O)(=O)c2ccccc2O1 (stereo partly drawn) [Compound 22, 3-(3-{[(R)-4-ethyl-1,1-dioxide-3,4-dihydro-2H-benzo[b][1,4,5]oxathiazepin-2-yl]methyl}-4-methylphenyl)-3-[5-(methylcarbamoyl)thiophen-3-yl]propanoic acid]
53% | CC[C@@H]1CN(Cc2cc(C(c3cc(F)c(C(C)=O)s3)C(C)C(=O)O)ccc2C)S(=O)(=O)c2cnccc2O1 (stereo partly drawn) [Compound 52, 3-(5-acetyl-4-fluorothiophen-2-yl)-3-(3-{[(R)-4-ethyl-1,1-dioxide-3,4-dihydro-2H-pyrido[4,3-b][1,4,5]oxathiazepin-2-yl]methyl}-4-methylphenyl)-2-methylpropanoic acid]
38% | CC[C@@H]1CN(Cc2cc(C(c3ccc(C(C)=O)s3)C(C)(C)C(=O)O)ccc2C)S(=O)(=O)c2c(F)cccc2O1 (stereo partly drawn) [Compound 9, 3-(5-acetylthiophen-2-yl)-3-(3-{[(R)-4-ethyl-9-fluoro-1,1-dioxide-3,4-dihydro-2H-benzo[b][1,4,5]oxathiazepin-2-yl]methyl}-4-methylphenyl)-2,2-dimethylpropanoic acid]
36% | CC[C@@H]1CN(Cc2cc(C(CC(=O)O)c3cc(F)c(C(C)=O)s3)ccc2C)S(=O)(=O)c2ccccc2O1 (stereo partly drawn) [Compound 8, 3-(5-acetyl-4-fluorothiophen-2-yl)-3-(3-{[(R)-4-ethyl-1,1-dioxide-3,4-dihydro-2H-benzo[b][1,4,5]oxathiazepin-2-yl]methyl}-4-methylphenyl)propanoic acid]
32% | CC[C@@H]1CN(Cc2cc(C(c3ccc(C(C)=O)s3)C(C)(C)C(=O)O)ccc2C)S(=O)(=O)c2ccccc2O1 (stereo partly drawn) [Compound 6, 3-(5-acetylthiophen-2-yl)-3-(3-{[(R)-4-ethyl-1,1-dioxide-3,4-dihydro-2H-benzo[b][1,4,5]oxathiazepin-2-yl]methyl}-4-methylphenyl)-2,2-dimethylpropanoic acid]
53% | CC[C@@H]1CN(Cc2cc(C(CC(=O)O)c3ccc(C(C)=O)s3)ccc2C)S(=O)(=O)c2ccccc2O1 (stereo partly drawn) [Compound 5, 3-(5-acetylthiophen-2-yl)-3-(3-{[(R)-4-ethyl-1,1-dioxide-3,4-dihydro-2H-benzo[b][1,4,5]oxathiazepin-2-yl]methyl}-4-methylphenyl)propanoic acid]
25% | CC[C@@H]1CN(Cc2cc(C(CC(=O)O)c3sc(C(C)=O)cc3C)ccc2C)S(=O)(=O)c2ccccc2O1 (stereo partly drawn) [Compound 14, 3-(5-acetyl-3-methylthiophen-2-yl)-3-(3-{[(R)-4-ethyl-1,1-dioxide-3,4-dihydro-2H-benzo[b][1,4,5]oxathiazepin-2-yl]methyl}-4-methylphenyl)propanoic acid]
75% | CC[C@@H]1CN(Cc2cc(C(CC(=O)O)c3ccc(C(N)=O)s3)ccc2C)S(=O)(=O)c2ccccc2O1 (stereo partly drawn) [Compound 23, 3-(5-carbamoylthiophen-2-yl)-3-(3-{[(R)-4-ethyl-1,1-dioxide-3,4-dihydro-2H-benzo[b][1,4,5]oxathiazepin-2-yl]methyl}-4-methylphenyl)propanoic acid]
36% | CC[C@@H]1CN(Cc2cc(C(CC(=O)O)c3cccs3)ccc2C)S(=O)(=O)c2ccccc2O1 (stereo partly drawn) [Compound 17, 3-(3-{[(R)-4-ethyl-1,1-dioxide-3,4-dihydro-2H-benzo[b][1,4,5]oxathiazepin-2-yl]methyl}-4-methylphenyl)-3-(thiophen-2-yl)propanoic acid]
23% | CC[C@@H]1CN(Cc2cc(C(CC(=O)O)c3ccc(C#N)s3)ccc2C)S(=O)(=O)c2ccccc2O1 (stereo partly drawn) [Compound 19, 3-(5-cyanothiophen-2-yl)-3-(3-{[(R)-4-ethyl-1,1-dioxide-3,4-dihydro-2H-benzo[b][1,4,5]oxathiazepin-2-yl]methyl}-4-methylphenyl)propanoic acid]
30% | CC[C@@H]1CN(Cc2cc(C(CC(=O)O)c3cc(C)c(C(C)=O)s3)ccc2C)S(=O)(=O)c2ccccc2O1 (stereo partly drawn) [Compound 7, 3-(5-acetyl-4-methylthiophen-2-yl)-3-(3-{[(R)-4-ethyl-1,1-dioxide-3,4-dihydro-2H-benzo[b][1,4,5]oxathiazepin-2-yl]methyl}-4-methylphenyl)propanoic acid]
